# From US8802597B2, “Herbicidal pyrimidines” (E I du Pont de Nemours and Company, priority 2003, dated 2014)
# Legend:
# Assay in all cases: Test D pre/postemergence
# Format in all cases: in vivo
# Conditions in all cases: scale 0 to 100 (100 = complete control)
# [1] = system: pigweed (Amaranthus retroflexus)
# Source text: (§1) Seeds of plant species selected from catchweed bedstraw (galium; Galium aparine), common chickweed (Stellaria media), kochia (Kochia scoparia), lambsquarters (Chenopodium album), pigweed (Amaranthus retroflexus), Russian thistle (Salsola kali), wild buckwheat (Polygonum convolvulus), wild mustard (Sinapis arvensis), winter barley (Hordeum vulgare), and wheat (Triticum aestivum) were planted and treated preemergence with test chemicals formulated in a non-phytotoxic solvent mixture which included a surfactant.
# (§2) At the same time, plants selected from these crop and weed species were treated with postemergence applications of some of the test chemicals formulated in the same manner. Plants ranged in height from 2 to 18 cm (1- to 4-leaf stage) for postemergence treatments. Treated plants and controls were maintained in a controlled growth environment for 15 to 25 days after which time all species were compared to controls and visually evaluated. Plant response ratings, summarized in Table D, are based on a scale of 0 to 100 where 0 is no effect and 100 is complete control. A dash (-) response means no test result.
# [2] = system: common chickweed (Stellaria media)
# Source text: as §1, §2
# [3] = system: wild mustard (Sinapis arvensis)
# Source text: as §1, §2
# [4] = system: wild buckwheat (Polygonum convolvulus)
# Source text: as §1, §2
# [5] = system: catchweed bedstraw (galium; Galium aparine)
# Source text: as §1, §2
# [6] = system: lambsquarters (Chenopodium album)
# Source text: as §1, §2
# kochia (Kochia scoparia) = system: kochia (Kochia scoparia)
# Source text: as §1, §2
# [7] = system: wheat (Triticum aestivum)
# Source text: as §1, §2
# [8] = system: Russian thistle (Salsola kali)
# Source text: as §1, §2
smiles,measurement,setting,value
CCOC(=O)Cc1nc(C2CC2)nc(N=CN(C)C)c1Br [Compound 33],"Plant response rating, Pigweed","[1]; Postemergence, 62 g ai/ha",45
same,"Plant response rating, Pigweed","[1]; Postemergence, 125 g ai/ha",55
same,"Plant response rating, Pigweed","[1]; Postemergence, 250 g ai/ha",55
same,"Plant response rating, Pigweed","[1]; Preemergence, 62 g ai/ha",60
same,"Plant response rating, Pigweed","[1]; Preemergence, 125 g ai/ha",70
same,"Plant response rating, Pigweed","[1]; Preemergence, 250 g ai/ha",90
same,"Plant response rating, Chickweed","[2]; Postemergence, 62 g ai/ha",40
same,"Plant response rating, Chickweed","[2]; Postemergence, 125 g ai/ha",50
same,"Plant response rating, Chickweed","[2]; Postemergence, 250 g ai/ha",60
same,"Plant response rating, Chickweed","[2]; Preemergence, 250 g ai/ha",65
same,"Plant response rating, Mustard, Wild","[3]; Postemergence, 62 g ai/ha",50
same,"Plant response rating, Mustard, Wild","[3]; Postemergence, 125 g ai/ha",50
same,"Plant response rating, Mustard, Wild","[3]; Postemergence, 250 g ai/ha",50
same,"Plant response rating, Mustard, Wild","[3]; Preemergence, 62 g ai/ha",65
same,"Plant response rating, Mustard, Wild","[3]; Preemergence, 125 g ai/ha",65
same,"Plant response rating, Mustard, Wild","[3]; Preemergence, 250 g ai/ha",65
same,"Plant response rating, Buckwheat, Wild","[4]; Postemergence, 62 g ai/ha",40
same,"Plant response rating, Buckwheat, Wild","[4]; Postemergence, 125 g ai/ha",50
same,"Plant response rating, Buckwheat, Wild","[4]; Postemergence, 250 g ai/ha",55
same,"Plant response rating, Buckwheat, Wild","[4]; Preemergence, 62 g ai/ha",55
same,"Plant response rating, Buckwheat, Wild","[4]; Preemergence, 125 g ai/ha",65
same,"Plant response rating, Buckwheat, Wild","[4]; Preemergence, 250 g ai/ha",65
same,"Plant response rating, Galium","[5]; Postemergence, 62 g ai/ha",55
same,"Plant response rating, Galium","[5]; Postemergence, 125 g ai/ha",60
same,"Plant response rating, Galium","[5]; Postemergence, 250 g ai/ha",65
same,"Plant response rating, Galium","[5]; Preemergence, 62 g ai/ha",70
same,"Plant response rating, Galium","[5]; Preemergence, 125 g ai/ha",80
same,"Plant response rating, Galium","[5]; Preemergence, 250 g ai/ha",100
same,"Plant response rating, Lambsquarters","[6]; Postemergence, 62 g ai/ha",30
same,"Plant response rating, Lambsquarters","[6]; Postemergence, 125 g ai/ha",30
same,"Plant response rating, Lambsquarters","[6]; Postemergence, 250 g ai/ha",45
same,"Plant response rating, Lambsquarters","[6]; Preemergence, 62 g ai/ha",60
same,"Plant response rating, Lambsquarters","[6]; Preemergence, 125 g ai/ha",65
same,"Plant response rating, Lambsquarters","[6]; Preemergence, 250 g ai/ha",65
same,"Plant response rating, Kochia","kochia (Kochia scoparia); Postemergence, 62 g ai/ha",50
same,"Plant response rating, Kochia","kochia (Kochia scoparia); Postemergence, 125 g ai/ha",50
same,"Plant response rating, Kochia","kochia (Kochia scoparia); Postemergence, 250 g ai/ha",50
same,"Plant response rating, Kochia","kochia (Kochia scoparia); Preemergence, 62 g ai/ha",60
same,"Plant response rating, Kochia","kochia (Kochia scoparia); Preemergence, 125 g ai/ha",65
same,"Plant response rating, Kochia","kochia (Kochia scoparia); Preemergence, 250 g ai/ha",65
same,"Plant response rating, Wheat","[7]; Postemergence, 62 g ai/ha",35
same,"Plant response rating, Wheat","[7]; Postemergence, 125 g ai/ha",40
same,"Plant response rating, Wheat","[7]; Postemergence, 250 g ai/ha",45
same,"Plant response rating, Wheat","[7]; Preemergence, 62 g ai/ha",15
same,"Plant response rating, Wheat","[7]; Preemergence, 125 g ai/ha",35
same,"Plant response rating, Wheat","[7]; Preemergence, 250 g ai/ha",55
same,"Plant response rating, Russian Thistle","[8]; Postemergence, 62 g ai/ha",30
same,"Plant response rating, Russian Thistle","[8]; Postemergence, 125 g ai/ha",40
same,"Plant response rating, Russian Thistle","[8]; Postemergence, 250 g ai/ha",40
same,"Plant response rating, Russian Thistle","[8]; Preemergence, 62 g ai/ha",55
same,"Plant response rating, Russian Thistle","[8]; Preemergence, 125 g ai/ha",60
same,"Plant response rating, Russian Thistle","[8]; Preemergence, 250 g ai/ha",85
"CCOC(=O)c1nc(C2CC2)nc(N)c1Br [Compound 1, ethyl 6-amino-5-bromo-2-cyclopropyl-4-pyrimidinecarboxylate]","Plant response rating, Pigweed","[1]; Postemergence, 16 g ai/ha",60
same,"Plant response rating, Pigweed","[1]; Postemergence, 31 g ai/ha",100
same,"Plant response rating, Pigweed","[1]; Postemergence, 62 g ai/ha",100
same,"Plant response rating, Pigweed","[1]; Postemergence, 125 g ai/ha",100
same,"Plant response rating, Pigweed","[1]; Preemergence, 16 g ai/ha",60
same,"Plant response rating, Pigweed","[1]; Preemergence, 31 g ai/ha",70
same,"Plant response rating, Pigweed","[1]; Preemergence, 62 g ai/ha",95
same,"Plant response rating, Pigweed","[1]; Preemergence, 125 g ai/ha",100
same,"Plant response rating, Chickweed","[2]; Postemergence, 16 g ai/ha",65
same,"Plant response rating, Chickweed","[2]; Postemergence, 31 g ai/ha",65
same,"Plant response rating, Chickweed","[2]; Postemergence, 62 g ai/ha",65
same,"Plant response rating, Chickweed","[2]; Postemergence, 125 g ai/ha",85
same,"Plant response rating, Chickweed","[2]; Preemergence, 16 g ai/ha",60
same,"Plant response rating, Chickweed","[2]; Preemergence, 31 g ai/ha",65
same,"Plant response rating, Chickweed","[2]; Preemergence, 62 g ai/ha",70
same,"Plant response rating, Chickweed","[2]; Preemergence, 125 g ai/ha",75
same,"Plant response rating, Mustard, Wild","[3]; Postemergence, 16 g ai/ha",60
same,"Plant response rating, Mustard, Wild","[3]; Postemergence, 31 g ai/ha",70
same,"Plant response rating, Mustard, Wild","[3]; Postemergence, 62 g ai/ha",70
same,"Plant response rating, Mustard, Wild","[3]; Postemergence, 125 g ai/ha",75
same,"Plant response rating, Mustard, Wild","[3]; Preemergence, 16 g ai/ha",50
same,"Plant response rating, Mustard, Wild","[3]; Preemergence, 31 g ai/ha",65
same,"Plant response rating, Mustard, Wild","[3]; Preemergence, 62 g ai/ha",70
same,"Plant response rating, Mustard, Wild","[3]; Preemergence, 125 g ai/ha",90
same,"Plant response rating, Buckwheat, Wild","[4]; Postemergence, 16 g ai/ha",50
same,"Plant response rating, Buckwheat, Wild","[4]; Postemergence, 31 g ai/ha",80
same,"Plant response rating, Buckwheat, Wild","[4]; Postemergence, 62 g ai/ha",80
same,"Plant response rating, Buckwheat, Wild","[4]; Postemergence, 125 g ai/ha",80
same,"Plant response rating, Buckwheat, Wild","[4]; Preemergence, 16 g ai/ha",45
same,"Plant response rating, Buckwheat, Wild","[4]; Preemergence, 31 g ai/ha",60
same,"Plant response rating, Buckwheat, Wild","[4]; Preemergence, 62 g ai/ha",70
same,"Plant response rating, Buckwheat, Wild","[4]; Preemergence, 125 g ai/ha",75
same,"Plant response rating, Galium","[5]; Postemergence, 16 g ai/ha",95
same,"Plant response rating, Galium","[5]; Postemergence, 31 g ai/ha",100
same,"Plant response rating, Galium","[5]; Postemergence, 62 g ai/ha",100
same,"Plant response rating, Galium","[5]; Postemergence, 125 g ai/ha",100
same,"Plant response rating, Galium","[5]; Preemergence, 16 g ai/ha",80
same,"Plant response rating, Galium","[5]; Preemergence, 31 g ai/ha",80
same,"Plant response rating, Galium","[5]; Preemergence, 62 g ai/ha",100
same,"Plant response rating, Galium","[5]; Preemergence, 125 g ai/ha",100
same,"Plant response rating, Lambsquarters","[6]; Postemergence, 16 g ai/ha",95
same,"Plant response rating, Lambsquarters","[6]; Postemergence, 31 g ai/ha",95
same,"Plant response rating, Lambsquarters","[6]; Postemergence, 62 g ai/ha",100
same,"Plant response rating, Lambsquarters","[6]; Postemergence, 125 g ai/ha",100
same,"Plant response rating, Lambsquarters","[6]; Preemergence, 16 g ai/ha",65
same,"Plant response rating, Lambsquarters","[6]; Preemergence, 31 g ai/ha",75
same,"Plant response rating, Lambsquarters","[6]; Preemergence, 62 g ai/ha",85
same,"Plant response rating, Lambsquarters","[6]; Preemergence, 125 g ai/ha",100
same,"Plant response rating, Kochia","kochia (Kochia scoparia); Postemergence, 16 g ai/ha",85
same,"Plant response rating, Kochia","kochia (Kochia scoparia); Postemergence, 31 g ai/ha",100
same,"Plant response rating, Kochia","kochia (Kochia scoparia); Postemergence, 62 g ai/ha",100
same,"Plant response rating, Kochia","kochia (Kochia scoparia); Postemergence, 125 g ai/ha",100
same,"Plant response rating, Kochia","kochia (Kochia scoparia); Preemergence, 16 g ai/ha",65
same,"Plant response rating, Kochia","kochia (Kochia scoparia); Preemergence, 31 g ai/ha",75
same,"Plant response rating, Kochia","kochia (Kochia scoparia); Preemergence, 62 g ai/ha",100
same,"Plant response rating, Kochia","kochia (Kochia scoparia); Preemergence, 125 g ai/ha",100
same,"Plant response rating, Wheat","[7]; Postemergence, 16 g ai/ha",40
same,"Plant response rating, Wheat","[7]; Postemergence, 31 g ai/ha",80
same,"Plant response rating, Wheat","[7]; Postemergence, 62 g ai/ha",90
same,"Plant response rating, Wheat","[7]; Postemergence, 125 g ai/ha",100
same,"Plant response rating, Wheat","[7]; Preemergence, 16 g ai/ha",35
same,"Plant response rating, Wheat","[7]; Preemergence, 31 g ai/ha",70
same,"Plant response rating, Wheat","[7]; Preemergence, 62 g ai/ha",70
same,"Plant response rating, Wheat","[7]; Preemergence, 125 g ai/ha",70
same,"Plant response rating, Russian Thistle","[8]; Postemergence, 16 g ai/ha",45
same,"Plant response rating, Russian Thistle","[8]; Postemergence, 31 g ai/ha",65
same,"Plant response rating, Russian Thistle","[8]; Postemergence, 62 g ai/ha",85
same,"Plant response rating, Russian Thistle","[8]; Postemergence, 125 g ai/ha",100
same,"Plant response rating, Russian Thistle","[8]; Preemergence, 16 g ai/ha",100
same,"Plant response rating, Russian Thistle","[8]; Preemergence, 31 g ai/ha",100
same,"Plant response rating, Russian Thistle","[8]; Preemergence, 62 g ai/ha",100
same,"Plant response rating, Russian Thistle","[8]; Preemergence, 125 g ai/ha",100
